Measured values from patent publication US11136313B2, “Compounds, compositions, and methods for modulating CFTR” (Proteostasis Therapeutics, Inc., priority 2015, dated 2021).

Target: T1, ΔF508-CFTR (Homo sapiens, UniProt P13569, DEL508-508)
T1 construct: Primary lung epithelial cells homozygous for the Cystic Fibrosis-causing ΔF508 mutation were differentiated for a minimum of 4 weeks; endogenous in cells; host or cells: primary lung epithelial cells (hBE) homozygous for ΔF508, differentiated at an air-liquid interface
T1 sequence (P13569 with tags, fused parts or gaps DEL508-508): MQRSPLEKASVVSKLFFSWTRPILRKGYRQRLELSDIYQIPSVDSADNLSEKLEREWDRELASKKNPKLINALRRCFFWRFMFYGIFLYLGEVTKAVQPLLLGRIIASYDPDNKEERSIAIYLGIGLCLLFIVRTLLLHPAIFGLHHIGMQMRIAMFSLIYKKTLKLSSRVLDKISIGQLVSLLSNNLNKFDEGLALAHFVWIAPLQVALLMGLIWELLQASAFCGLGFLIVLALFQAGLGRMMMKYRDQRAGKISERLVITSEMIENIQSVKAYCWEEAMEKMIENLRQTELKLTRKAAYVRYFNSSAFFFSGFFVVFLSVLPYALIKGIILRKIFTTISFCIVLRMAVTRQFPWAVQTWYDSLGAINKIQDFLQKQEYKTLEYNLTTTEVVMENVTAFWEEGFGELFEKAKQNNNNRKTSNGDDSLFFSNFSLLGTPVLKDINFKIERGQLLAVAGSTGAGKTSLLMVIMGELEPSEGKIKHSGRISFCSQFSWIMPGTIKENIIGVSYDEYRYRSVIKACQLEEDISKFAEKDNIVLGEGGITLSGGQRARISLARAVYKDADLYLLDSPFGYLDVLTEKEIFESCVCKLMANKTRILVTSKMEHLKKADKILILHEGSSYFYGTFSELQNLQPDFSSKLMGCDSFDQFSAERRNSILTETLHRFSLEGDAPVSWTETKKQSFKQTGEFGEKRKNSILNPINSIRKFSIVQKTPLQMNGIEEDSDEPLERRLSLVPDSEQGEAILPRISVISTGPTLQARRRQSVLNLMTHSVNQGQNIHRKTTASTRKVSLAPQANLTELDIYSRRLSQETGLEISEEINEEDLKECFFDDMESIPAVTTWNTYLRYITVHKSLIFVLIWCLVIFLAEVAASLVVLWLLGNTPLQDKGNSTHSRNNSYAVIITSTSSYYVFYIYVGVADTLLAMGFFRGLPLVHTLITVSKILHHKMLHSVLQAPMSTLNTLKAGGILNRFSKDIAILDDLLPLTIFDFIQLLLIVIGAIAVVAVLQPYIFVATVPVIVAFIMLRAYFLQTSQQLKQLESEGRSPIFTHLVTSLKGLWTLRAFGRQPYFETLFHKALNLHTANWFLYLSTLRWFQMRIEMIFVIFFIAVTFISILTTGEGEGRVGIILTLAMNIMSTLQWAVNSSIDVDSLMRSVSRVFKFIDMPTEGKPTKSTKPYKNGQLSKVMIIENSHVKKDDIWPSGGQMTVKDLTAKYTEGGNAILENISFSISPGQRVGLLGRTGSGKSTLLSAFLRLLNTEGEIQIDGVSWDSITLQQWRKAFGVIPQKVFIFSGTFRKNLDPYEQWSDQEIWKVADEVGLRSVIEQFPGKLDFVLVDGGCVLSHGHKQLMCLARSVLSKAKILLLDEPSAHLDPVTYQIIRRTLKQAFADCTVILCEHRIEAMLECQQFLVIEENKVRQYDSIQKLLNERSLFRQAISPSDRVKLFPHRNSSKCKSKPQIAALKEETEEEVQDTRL
Experiment: hBE equivalent current (Ieq) assay: AUC of equivalent chloride current after forskolin/VX-770 in primary lung epithelial cells homozygous for ΔF508
Type: cell-based
Settings: relative to CFTR amplifier (Compound A)+VX-809 (3 uM), compound at 10 uM and Compound A at 3 uM, 24 h treatment
Summary of the method: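 Readout is the increase over vehicle in equivalent chloride current AUC from forskolin/VX-770 addition to bumetanide, measured by current clamp at 36 °C after benzamil block of ENaC. Cultures were homozygous ΔF508 primary lung epithelium grown ≥4 weeks at air-liquid interface and exposed basolaterally to compound for 24 h.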

Question: Which Activity does the source give for CNS(=O)(=O)c1ccc([C@@H](C)Oc2ccc(C)c3nc(-c4oc5ccccc5c4C)cc(C(=O)[O-])c23)cc1.[Na+] [Compound 239, Sodium 8-Methyl-2-(3-methyl-l-benzofuran-2-yl)-5-[(1R)-1-[4-(methylsulfamoyl)phenyl]ethoxy]quinoline-4-carboxylate] here?
Answer: Its Activity is “++ (activity>50% of CFTR amplifier+VX-809 (3 uM) with compound at 10 uM and Compound A at 3 uM)”.

Question: CNS(=O)(=O)c1ccc([C@H](C)Oc2ccc(C)c3nc(-c4oc5ccccc5c4C)cc(C(=O)[O-])c23)cc1.[Na+] [Compound 240, Sodium 8-Methyl-2-(3-methyl-1-benzofuran-2-yl)-5-[(1S)-1-[4-(methylsulfamoyl)phenyl]ethoxy]quinoline-4-carboxylate] was tested. Which Activity did it give?
Answer: Its Activity is “++ (activity>50% of CFTR amplifier+VX-809 (3 uM) with compound at 10 uM and Compound A at 3 uM)”.

Question: With Cc1c(-c2cc(C(=O)[O-])c3c(O[C@@H](C)C4CCCCC4)ccc(C)c3n2)oc2ccccc12.[Na+] [Compound 244] as the molecule, how does the Activity read?
Answer: The Activity was “++ (activity>50% of CFTR amplifier+VX-809 (3 uM) with compound at 10 uM and Compound A at 3 uM)”.

Question: With Cc1c(-c2cc(C(=O)[O-])c3c(O[C@H](C)C4CCOCC4)ccc(C)c3n2)oc2ccccc12.[Na+] [Compound 245, Sodium 5-((1R)-1-(tetrahydro-2H-pyran-4-yl)ethoxy)-8-methyl-2-(3-methyl-1-benzofuran-2-yl)quinoline-4-carboxylate] as the molecule, how does the Activity read?
Answer: Its Activity is “++ (activity>50% of CFTR amplifier+VX-809 (3 uM) with compound at 10 uM and Compound A at 3 uM)”.

Question: Which Activity does the source give for Cc1c(-c2cc(C(=O)[O-])c3c(O[C@@H](C)C4CCOCC4)ccc(C)c3n2)oc2ccccc12.[Na+] [Compound 246, Sodium 5-((1S)-1-(tetrahydro-2H-pyran-4-yl)ethoxy)-8-methyl-2-(3-methyl-1-benzofuran-2-yl)quinoline-4-carboxylate] here?
Answer: Its Activity is “++ (activity>50% of CFTR amplifier+VX-809 (3 uM) with compound at 10 uM and Compound A at 3 uM)”.

Question: Which Activity does the source give for Cc1c(-c2cc(C(=O)[O-])c3c(O[C@H](C)C4CCN(S(C)(=O)=O)CC4)ccc(C)c3n2)oc2ccccc12.[Na+] [Compound 247, Sodium 5-[(1R)-1-(1-Methanesulfonylpiperidin-4-yl)ethoxy]-8-methyl-2-(3-methyl-1-benzofuran-2-yl)quinoline-4-carboxylate] here?
Answer: The Activity was “++ (activity>50% of CFTR amplifier+VX-809 (3 uM) with compound at 10 uM and Compound A at 3 uM)”.

Question: With Cc1c(-c2cc(C(=O)[O-])c3c(O[C@@H](C)C4CCN(S(C)(=O)=O)CC4)ccc(C)c3n2)oc2ccccc12.[Na+] [Compound 248, Sodium 5-[(1S)-1-(1-Methanesulfonylpiperidin-4-yl)ethoxy]-8-methyl-2-(3-methyl-1-benzofuran-2-yl)quinoline-4-carboxylate] as the molecule, how does the Activity read?
Answer: The Activity was “++ (activity>50% of CFTR amplifier+VX-809 (3 uM) with compound at 10 uM and Compound A at 3 uM)”.

Question: How did the Activity turn out when Cc1c(-c2cc(C(=O)[O-])c3c(O[C@@H]4CCc5ccccc5C4)ccc(C)c3n2)oc2ccccc12.[Na+] [Compound 249] was run?
Answer: Its Activity is “++ (activity>50% of CFTR amplifier+VX-809 (3 uM) with compound at 10 uM and Compound A at 3 uM)”.

Question: How did the Activity turn out when Cc1c(-c2cc(C(=O)[O-])c3c(O[C@H]4CCc5ccccc5C4)ccc(C)c3n2)oc2ccccc12.[Na+] [Compound 253] was run?
Answer: Its Activity is “++ (activity>50% of CFTR amplifier+VX-809 (3 uM) with compound at 10 uM and Compound A at 3 uM)”.

Question: With Cc1c(-c2cc(C(=O)[O-])c3c(O[C@H](C)c4ccn5nccc5c4)ccc(C)c3n2)oc2ccccc12.[Na+] [Compound 257, Sodium 8-Methyl-2-((1R)-3-methyl-1-benzofuran-2-yl)-5-(1-[pyrazolo[1,5-a]pyridin-5-yl]ethoxy)quinoline-4-carboxylate] as the molecule, how does the Activity read?
Answer: The Activity was “++ (activity>50% of CFTR amplifier+VX-809 (3 uM) with compound at 10 uM and Compound A at 3 uM)”.

Question: Cc1c(-c2cc(C(=O)[O-])c3c(O[C@@H](C)c4ccn5nccc5c4)ccc(C)c3n2)oc2ccccc12.[Na+] [Compound 258, Sodium 8-Methyl-2-((1S)-3-methyl-1-benzofuran-2-yl)-5-(1-[pyrazolo[1,5-a]pyridin-5-yl]ethoxy)quinoline-4-carboxylate] was tested. Which Activity did it give?
Answer: The Activity was “++ (activity>50% of CFTR amplifier+VX-809 (3 uM) with compound at 10 uM and Compound A at 3 uM)”.

Question: How did the Activity turn out when Cc1c(-c2cc(C(=O)[O-])c3c(OCc4ccc(S(C)(=O)=O)cc4)ccc(C)c3n2)oc2ccccc12.[Na+] [Compound 263] was run?
Answer: The Activity was “++ (activity>50% of CFTR amplifier+VX-809 (3 uM) with compound at 10 uM and Compound A at 3 uM)”.

Question: For Cc1c(-c2cc(C(=O)[O-])c3c(OCc4ccc(S(C)(=O)=O)cc4)ccc(C)c3n2)sc2ccccc12.[Na+] [Compound 264], which Activity is on record?
Answer: Its Activity is “++ (activity>50% of CFTR amplifier+VX-809 (3 uM) with compound at 10 uM and Compound A at 3 uM)”.

Question: Cc1c(-c2cc(C(=O)[O-])c3c(O[C@H](C)c4ccc(S(C)(=O)=O)cc4)ccc(C)c3n2)sc2ccccc12.[Na+] [Compound 265] was tested. Which Activity did it give?
Answer: Its Activity is “++ (activity>50% of CFTR amplifier+VX-809 (3 uM) with compound at 10 uM and Compound A at 3 uM)”.

Question: Which Activity does the source give for Cc1c(-c2cc(C(=O)[O-])c3c(O[C@@H](C)c4ccc(S(C)(=O)=O)cc4)ccc(C)c3n2)sc2ccccc12.[Na+] [Compound 266] here?
Answer: The Activity was “++ (activity>50% of CFTR amplifier+VX-809 (3 uM) with compound at 10 uM and Compound A at 3 uM)”.

Question: How did the Activity turn out when Cc1c(-c2cc(-c3cc(O)[nH]n3)c3c(O[C@H](C)c4ccccc4)ccc(C)c3n2)oc2ccccc12 [Compound 274] was run?
Answer: Its Activity is “+ (activity<50% of an CFTR amplifier (Compound A)+VX-809 (3 uM) with compound at 10 uM and Compound A at 3 uM)”.

Question: Cc1c(-c2cc(CC(=O)O)c3c(OC(C)c4ccccc4)ccc(C)c3n2)oc2ccccc12 (stereo not shown) [Compound 276, 2-[8-Methyl-2-(3-methyl-1-benzofuran-2-yl)-5-(1-phenylethoxy)quinolin-4-yl]acetic Acid] was tested. Which Activity did it give?
Answer: The Activity was “++ (activity>50% of CFTR amplifier+VX-809 (3 uM) with compound at 10 uM and Compound A at 3 uM)”.

Question: Which Activity does the source give for Cc1c(-c2cc(C(=O)[O-])c3c(OC4CC(C)C4)ccc(C)c3n2)sc2ccccc12.[Na+] (stereo not shown) [Compound 277, Sodium 8-Methyl-2-(3-methyl-1-benzothiophen-2-yl)-5-(3-methylcyclobutoxy)quinoline-4-carboxylate] here?
Answer: Its Activity is “++ (activity>50% of CFTR amplifier+VX-809 (3 uM) with compound at 10 uM and Compound A at 3 uM)”.

Question: How did the Activity turn out when Cc1c(-c2cc(C(=O)[O-])c3c(OCc4ccccc4C#N)ccc(C)c3n2)sc2ccccc12.[Na+] [Compound 280] was run?
Answer: Its Activity is “++ (activity>50% of CFTR amplifier+VX-809 (3 uM) with compound at 10 uM and Compound A at 3 uM)”.

Question: With Cc1c(-c2cc(C(=O)[O-])c3c(O[C@H]4C[C@H](c5ccccc5)C4)ccc(C)c3n2)oc2ccccc12.[Na+] [Compound 281, Sodium 8-Methyl-2-(3-methyl-1-benzofuran-2-yl)-5-[(1r,3r)-3-phenylcyclobutoxy]quinoline-4-carboxylate] as the molecule, how does the Activity read?
Answer: Its Activity is “++ (activity>50% of CFTR amplifier+VX-809 (3 uM) with compound at 10 uM and Compound A at 3 uM)”.

Question: Which Activity does the source give for Cc1c(-c2cc(C(=O)[O-])c3c(O[C@H]4C[C@@H](c5ccccc5)C4)ccc(C)c3n2)oc2ccccc12.[Na+] [Compound 282, Sodium 8-Methyl-2-(3-methyl-1-benzofuran-2-yl)-5-[(1s,3s)-3-phenylcyclobutoxy]quinoline-4-carboxylate] here?
Answer: Its Activity is “++ (activity>50% of CFTR amplifier+VX-809 (3 uM) with compound at 10 uM and Compound A at 3 uM)”.

Question: With Cc1c(-c2cc(C(=O)[O-])c3c(O[C@H]4C[C@H](c5ccccc5)C4)ccc(C)c3n2)sc2ccccc12.[Na+] [Compound 283, Sodium 8-Methyl-2-(3-methyl-1-benzothiophen-2-yl)-5-[(1r,3r)-3-phenylcyclobutoxy]quinoline-4-carboxylate] as the molecule, how does the Activity read?
Answer: The Activity was “++ (activity>50% of CFTR amplifier+VX-809 (3 uM) with compound at 10 uM and Compound A at 3 uM)”.

Question: Cc1c(-c2cc(C(=O)[O-])c3c(O[C@H]4C[C@@H](c5ccccc5)C4)ccc(C)c3n2)sc2ccccc12.[Na+] [Compound 284, Sodium 8-Methyl-2-(3-methyl-1-benzothiophen-2-yl)-5-[(1s,3s)-3-phenylcyclobutoxy]quinoline-4-carboxylate] was tested. Which Activity did it give?
Answer: The Activity was “++ (activity>50% of CFTR amplifier+VX-809 (3 uM) with compound at 10 uM and Compound A at 3 uM)”.

Question: Cc1c(-c2cc(C(=O)[O-])c3c(O[C@H](C)c4ccc(C5COC5)cc4)ccc(C)c3n2)oc2ccccc12.[Na+] [Compound 285, Sodium 8-Methyl-2-(3-methyl-1-benzofuran-2-yl)-5-[(1R)-1-[4-(oxetan-3-yl)phenyl]ethoxy]quinoline-4-carboxylate] was tested. Which Activity did it give?
Answer: Its Activity is “++ (activity>50% of CFTR amplifier+VX-809 (3 uM) with compound at 10 uM and Compound A at 3 uM)”.

Question: With Cc1c(-c2cc(C(=O)[O-])c3c(O[C@@H](C)c4ccc(C5COC5)cc4)ccc(C)c3n2)oc2ccccc12.[Na+] [Compound 286, Sodium 8-Methyl-2-(3-methyl-1-benzofuran-2-yl)-5-[(1S)-1-[4-(oxetan-3-yl)phenyl]ethoxy]quinoline-4-carboxylate] as the molecule, how does the Activity read?
Answer: Its Activity is “++ (activity>50% of CFTR amplifier+VX-809 (3 uM) with compound at 10 uM and Compound A at 3 uM)”.

Question: With Cc1c(-c2cc(C(=O)[O-])c3c(OCc4ccccc4F)ccc(C)c3n2)sc2ccccc12.[Na+] [Compound 289, Sodium 5-[(2-Fluorophenyl)methoxy]-8-methyl-2-(3-methyl-1-benzothiophen-2-yl)quinoline-4-carboxylate] as the molecule, how does the Activity read?
Answer: The Activity was “++ (activity>50% of CFTR amplifier+VX-809 (3 uM) with compound at 10 uM and Compound A at 3 uM)”.

Question: How did the Activity turn out when Cc1c(-c2cc(C(=O)[O-])c3c(OCc4cccc(F)c4)ccc(C)c3n2)sc2ccccc12.[Na+] [Compound 290, Sodium 5-[(3-Fluorophenyl)methoxy]-8-methyl-2-(3-methyl-1-benzothiophen-2-yl)quinoline-4-carboxylate] was run?
Answer: Its Activity is “++ (activity>50% of CFTR amplifier+VX-809 (3 uM) with compound at 10 uM and Compound A at 3 uM)”.

Question: With Cc1c(-c2cc(C(=O)[O-])c3c(OCc4ccc(F)cc4)ccc(C)c3n2)sc2ccccc12.[Na+] [Compound 291, Sodium 5-[(4-Fluorophenyl)methoxy]-8-methyl-2-(3-methyl-1-benzothiophen-2-yl)quinoline-4-carboxylate] as the molecule, how does the Activity read?
Answer: The Activity was “++ (activity>50% of CFTR amplifier+VX-809 (3 uM) with compound at 10 uM and Compound A at 3 uM)”.
